According to US20030153056A1, “Glycosyltransferase proteins” (priority 2000, published 2003):
Numbering of substitutions follows the chain as printed. One block for each molecule: values may come before it.

Key:
Brainiac [1] = target: T1, Brainiac (Drosophila melanogaster, UniProt Q24157); experiment: Brainiac activity towards glycosphingolipids; format: biochemical; conditions: 10 μg purified glycolipid, 300 μM UDP-14C-N-acetylglucosamine, FIG. 8
T1 construct: The full coding region of Brainiac was prepared by PCR using genomic DNA; made in house; host or cells: High Five insect cells (baculovirus vector pVL1393); microsomal fractions
T1 sequence (Q24157 1-325): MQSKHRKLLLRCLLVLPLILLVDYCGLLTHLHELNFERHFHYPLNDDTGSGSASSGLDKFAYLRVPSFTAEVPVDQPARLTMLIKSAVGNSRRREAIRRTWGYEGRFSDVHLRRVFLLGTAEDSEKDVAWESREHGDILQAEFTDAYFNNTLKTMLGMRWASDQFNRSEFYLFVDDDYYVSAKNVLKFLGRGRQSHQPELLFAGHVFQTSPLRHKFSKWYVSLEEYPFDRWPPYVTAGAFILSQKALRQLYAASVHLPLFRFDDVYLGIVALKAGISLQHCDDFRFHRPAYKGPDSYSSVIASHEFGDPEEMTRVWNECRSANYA
Protocol: FIG. 8: Brainiac activity towards glycosphingolipids purified from insect cells. Microsomal fractions (1.5 mg) of insect cells transfected with pVL-brainiac and pVL-fringe were used as the enzyme source. Reactions contained 10 μg of purified glycolipids and 300 μM of UDP-^14C-N-acetylglucosamine (8200 cpm/nmol). Products were purified on C18-silica cartridges, spotted on HPTLC-plates, developed in 60:35:8 (chloroform:methanol:water) and exposed for autoradiography.
(§1) Brainiac-full was cloned into baculovirus vector pVL1393 (Pharmingen) and expressed in High Five cells. Microsomal fractions were prepared as described above for Fringe but with 0.5% N-octylglucoside as Triton X-100 and related detergents destroyed the activity. Initial analysis of activity was done with five monosaccharides and four donor sugar nucleotides as described in FIG. 5 for Fringe. Assays with the acceptors listed in Table 1 were performed as described for Fringe except no additional detergent was added. Reactions with glycolipid substrates were performed in the presence of 0.5% N-octylglucoside in 50 ul reaction volume containing 10 μg glycolipid.
Glycolipids were obtained from Sigma or purified from High Five insect cells grown in serum free medium. […]

human β3GnT2 = target: T2, human β3GnT2 (Homo sapiens, UniProt Q9NY97); experiment: human β3GnT2 activity with glycolipid acceptors; format: biochemical; conditions: not shown
T2 sequence (Q9NY97 1-397): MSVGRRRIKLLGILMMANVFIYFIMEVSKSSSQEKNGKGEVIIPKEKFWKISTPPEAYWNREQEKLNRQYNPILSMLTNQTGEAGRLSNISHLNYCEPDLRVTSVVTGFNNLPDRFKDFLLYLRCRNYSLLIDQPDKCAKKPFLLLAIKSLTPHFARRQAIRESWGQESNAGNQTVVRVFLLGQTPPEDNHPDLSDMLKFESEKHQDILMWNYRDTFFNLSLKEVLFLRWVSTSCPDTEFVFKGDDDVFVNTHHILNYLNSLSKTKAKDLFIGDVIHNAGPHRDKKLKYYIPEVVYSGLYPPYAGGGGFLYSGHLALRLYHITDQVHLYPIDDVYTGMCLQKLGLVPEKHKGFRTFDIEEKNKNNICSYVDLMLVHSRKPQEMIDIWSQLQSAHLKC
Text: It is interesting to note that Brainiac also functions with Lac-Cer, a glycolipid which has never been described from insects. Brainiac is the ancestral gene of a very large homologous β3glycosyltransferase gene family in mammalian cells, and the members of this family with closest sequence similarity to Brainiac is represented by a family of β3GlcNAc-transferases with similar specificity for Lac-Cer (Shiraishi et al., 2001, J. Biol. Chem., 276: 3498-3507.). One of these designated human β3GnT2 was analysed in detail and shown to use Lac-Cer but not Mac-Cer (not shown).

Brainiac [2] = target: T1, Brainiac; experiment: Initial analysis of Brainiac glycosyltransferase activity with monosaccharides and four UDP sugar nucleotides; format: biochemical; conditions: panel of monosaccharides, donor UDP-GlcNAc, High Five cell microsomes
Protocol: as §1
In the latter case the acceptor sugar was not determined.

[3] = target: T3, Brainiac β1-3-N-acetylglucosaminyltransferase (Drosophila melanogaster, UniProt Q24157); experiment: Substrate specificities of Brainiac β1-3-N-acetylglucosaminyltransferase (acceptor panel, microsomal preparations); format: biochemical; conditions: microsomes of pVL-Brainiac infected High Five cells, background of irrelevant construct subtracted, donor UDP-GlcNAc
T3 construct: The full coding region of Brainiac was prepared by PCR using genomic DNA; made in house; host or cells: High Five insect cells (baculovirus vector pVL1393); microsomal fractions
T3 sequence (Q24157 1-325): T1 sequence (Q24157 1-325)

Fringe = target: T4, Fringe (Drosophila melanogaster, UniProt Q24342); experiment: Fringe glycosyltransferase assay, transfer of 14C-labelled UDP-donor sugars onto acceptor sugars; format: biochemical; conditions: for Acceptor for Fringe, in words: microsomal fractions of High Five cells
T4 construct: made in house; host or cells: High Five insect cells (baculovirus vector pVL1393); solubilised microsomal fractions
T4 sequence (Q24342 1-412): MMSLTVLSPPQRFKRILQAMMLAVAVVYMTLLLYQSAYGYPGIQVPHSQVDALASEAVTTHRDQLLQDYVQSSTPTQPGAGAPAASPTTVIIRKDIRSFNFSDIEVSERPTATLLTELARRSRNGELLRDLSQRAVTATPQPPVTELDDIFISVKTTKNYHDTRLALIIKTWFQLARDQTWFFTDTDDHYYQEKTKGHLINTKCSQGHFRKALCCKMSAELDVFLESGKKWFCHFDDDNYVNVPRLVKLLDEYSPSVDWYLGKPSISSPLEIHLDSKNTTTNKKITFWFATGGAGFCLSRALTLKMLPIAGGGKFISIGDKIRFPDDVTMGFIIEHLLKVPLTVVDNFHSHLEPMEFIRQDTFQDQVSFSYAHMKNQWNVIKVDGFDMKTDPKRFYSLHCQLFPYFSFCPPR
Protocol: Fringe-Myc and Fringe-NNN-myc were cloned into baculovirus vector pVL1393 (Pharmingen) and expressed in High Five™ cells. Microsomal fractions were prepared by hypotonic lysis ultracentrifugation and solubilised 1:2 (vol/vol) in 20 mM Cacodylate pH 6.5, 1% Triton-CF54, 5 MM MnCl2 containing Leupeptin and Aprotinin as described previously (Amado et al., 1998). For glycosyltransferase assays, 5 μl of this suspension were added to a total of 50 μl reaction mixture containing 25 mM Cacodylate pH 6.5, 0.25% Triton-CF54, 5 mM MnCl2, 500 mM free sugar, 100 μM UDP-^14C-sugar (1280-2000 cpm/nmol). Reactions were incubated at 37° C. for 45-60 minutes, followed by Dowex-1 anion exchange chromatography and scintillation counting of 50% of the flow-through.
To ask whether Fringe has intrinsic glycosyltransferase activity, Fringe-wt and Fring-NNN were produced by baculovirus-infection of insect cells. Microsomal fractions enriched for Golgi membranes were partially solubilized and assayed for the ability to the expressed proteins to catalyze the transfer of ^14C-labelled UDP-donor sugars onto acceptor sugars. A variety of different donor/acceptor combinations were tested (FIG. 5b).
Enzyme activity was measured by transfer of ^14C-labelled donor sugars (as UDP-conjugates) onto acceptor sugars. In FIG. 5b, average results from two experiments are shown. Donors tested were UDP-Glucose (Glc), UDP-Galactose (Gal), UDP-N-acetyl-Glucosamine (GlcNAc) and N-acetyl-Galactosamine (GalNAc). Acceptors tested were Glucose, Galactose, GlcNAc, GalNAc and Fucose.

Notch = target: T5, Notch (Drosophila melanogaster, UniProt P07207); experiment: Delta-AP binding to Notch transfected S2 cells; format: cell-based; conditions: co-expressed with Notch in S2 cells
T5 construct: expressed in transfected cells; host or cells: Drosophila Schneider S2 cells, transient transfection, pRmHa3
T5 sequence (P07207 53-2703): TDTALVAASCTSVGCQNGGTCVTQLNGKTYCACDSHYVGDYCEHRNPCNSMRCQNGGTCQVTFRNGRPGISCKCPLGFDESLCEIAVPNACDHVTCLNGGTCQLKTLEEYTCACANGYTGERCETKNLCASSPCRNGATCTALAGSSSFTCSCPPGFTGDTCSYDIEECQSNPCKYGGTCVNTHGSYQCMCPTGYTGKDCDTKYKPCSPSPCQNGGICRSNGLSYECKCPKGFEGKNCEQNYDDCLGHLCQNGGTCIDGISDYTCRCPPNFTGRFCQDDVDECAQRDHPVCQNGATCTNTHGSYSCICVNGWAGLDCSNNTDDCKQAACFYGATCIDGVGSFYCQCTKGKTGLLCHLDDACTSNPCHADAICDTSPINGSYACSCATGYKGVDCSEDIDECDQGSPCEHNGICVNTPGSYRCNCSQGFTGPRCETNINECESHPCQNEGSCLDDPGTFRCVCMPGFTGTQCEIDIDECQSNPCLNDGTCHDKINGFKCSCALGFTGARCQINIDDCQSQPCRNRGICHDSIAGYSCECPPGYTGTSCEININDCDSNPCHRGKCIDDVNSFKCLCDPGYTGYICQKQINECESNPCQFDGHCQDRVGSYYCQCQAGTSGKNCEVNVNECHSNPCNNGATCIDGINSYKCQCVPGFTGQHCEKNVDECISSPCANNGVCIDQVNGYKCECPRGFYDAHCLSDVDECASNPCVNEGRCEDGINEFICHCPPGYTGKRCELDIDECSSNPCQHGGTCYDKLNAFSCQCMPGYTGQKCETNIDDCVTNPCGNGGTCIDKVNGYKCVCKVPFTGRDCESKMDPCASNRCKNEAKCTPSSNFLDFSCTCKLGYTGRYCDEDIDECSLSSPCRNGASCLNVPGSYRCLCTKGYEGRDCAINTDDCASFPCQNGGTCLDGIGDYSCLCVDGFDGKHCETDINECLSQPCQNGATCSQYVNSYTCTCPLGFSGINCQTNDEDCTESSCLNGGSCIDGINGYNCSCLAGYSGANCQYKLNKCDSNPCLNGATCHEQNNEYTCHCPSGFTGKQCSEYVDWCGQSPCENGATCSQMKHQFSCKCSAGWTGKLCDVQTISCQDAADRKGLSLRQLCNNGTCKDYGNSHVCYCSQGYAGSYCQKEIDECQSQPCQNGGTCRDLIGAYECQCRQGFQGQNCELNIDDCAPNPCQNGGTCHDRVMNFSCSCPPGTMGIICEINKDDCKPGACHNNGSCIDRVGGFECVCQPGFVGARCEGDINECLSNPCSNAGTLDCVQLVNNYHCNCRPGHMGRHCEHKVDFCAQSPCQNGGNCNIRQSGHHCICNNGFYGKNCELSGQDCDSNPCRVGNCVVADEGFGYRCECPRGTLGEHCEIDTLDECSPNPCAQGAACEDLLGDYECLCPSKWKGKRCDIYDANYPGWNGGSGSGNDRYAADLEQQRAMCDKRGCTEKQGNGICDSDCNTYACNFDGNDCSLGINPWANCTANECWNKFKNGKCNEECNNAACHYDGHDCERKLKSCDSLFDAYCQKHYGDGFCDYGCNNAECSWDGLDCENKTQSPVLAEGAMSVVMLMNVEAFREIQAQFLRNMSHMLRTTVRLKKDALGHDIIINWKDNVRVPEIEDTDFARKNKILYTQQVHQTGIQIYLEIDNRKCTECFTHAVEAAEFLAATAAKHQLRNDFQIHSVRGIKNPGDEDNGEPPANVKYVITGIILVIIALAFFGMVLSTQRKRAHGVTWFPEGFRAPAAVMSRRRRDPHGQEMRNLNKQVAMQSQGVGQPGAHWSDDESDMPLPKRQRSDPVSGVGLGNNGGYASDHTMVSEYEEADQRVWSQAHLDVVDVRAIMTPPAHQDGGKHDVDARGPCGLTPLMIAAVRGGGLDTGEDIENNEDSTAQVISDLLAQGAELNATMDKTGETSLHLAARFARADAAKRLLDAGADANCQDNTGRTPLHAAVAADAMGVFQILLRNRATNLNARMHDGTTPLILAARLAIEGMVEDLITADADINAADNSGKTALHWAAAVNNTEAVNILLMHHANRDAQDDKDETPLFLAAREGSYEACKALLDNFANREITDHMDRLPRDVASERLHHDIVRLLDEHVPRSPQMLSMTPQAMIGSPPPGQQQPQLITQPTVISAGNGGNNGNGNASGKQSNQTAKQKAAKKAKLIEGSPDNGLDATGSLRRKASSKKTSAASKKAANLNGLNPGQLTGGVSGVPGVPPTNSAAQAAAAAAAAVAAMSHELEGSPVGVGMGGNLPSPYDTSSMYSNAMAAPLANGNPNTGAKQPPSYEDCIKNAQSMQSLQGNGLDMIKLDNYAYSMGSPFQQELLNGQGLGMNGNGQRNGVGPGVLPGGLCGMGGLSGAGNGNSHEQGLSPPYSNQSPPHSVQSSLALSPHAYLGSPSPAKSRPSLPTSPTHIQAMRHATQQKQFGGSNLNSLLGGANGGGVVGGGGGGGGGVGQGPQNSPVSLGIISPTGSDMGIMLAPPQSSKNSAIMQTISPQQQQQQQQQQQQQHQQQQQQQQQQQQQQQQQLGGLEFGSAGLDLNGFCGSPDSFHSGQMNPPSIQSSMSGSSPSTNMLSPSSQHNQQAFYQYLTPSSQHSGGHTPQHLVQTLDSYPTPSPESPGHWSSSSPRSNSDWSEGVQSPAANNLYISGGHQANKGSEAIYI
Protocol: Cell culture and Binding assays: cDNAs for expression in Schneider S2 cells were cloned into pRmHa3. Cells were transiently transfected by the CaPO4 method using 6-8 μg of DNA per well in 6 well plates. Expression was induced by addition of 0.7 mM CuSO4 for 2 days. Conditioned medium was collected from Notch-AP and Delta-AP transfected cells 2 days after induction. AP activity was adjusted to normalise activity levels of Notch-AP or Delta-AP expressed with or without Fringe. Binding was performed as described in Cheng and Flanagan, 1994. In brief, AP-containing supernatants were supplemented with 0.1% NaN3, and incubated 90 min at room temperature. Cells were washed 5 times in HBSS containing 0.05% BSA and 0.1% azide, and lysed in 10 mM Tris pH 8, 1% Triton-X100. Endogenous AP was inactivated by heat treatment for 10 min 60° C. and the lysates clarified by centrifugation. AP activity was measured in 1M Diethanolamine, 1 mM MgCl2, 5 mM para-nitrophenyl phosphate. Bound AP activity was quantified in 96 well plates using a microplate reader and Micromanager software (BioRad). An additional replicate of each transfection was prepared for immunoblot analysis. Lysates were prepared separately for Immunoblot analysis to allow inclusion of protease inhibitors which are not used in the binding assay. To measure interaction of Delta-AP with transiently transfected S2 cells, bound AP activity was quantified in an enzymatic colour reaction. Cells transfected with empty vector were used as a control. […] AP activity is shown in mOD units/minute in cell extracts (replicate experiments are shown in this figure). In this experiment Fringe stimulated binding by over 50 fold. […] However, the assay allows measurement of Fringe-dependent stimulation of Delta-AP binding.

[4] = system: Notch activation in the wing imaginal disc; experiment: Ectopic expression under patched GAL4 control in wing imaginal disc, Wingless expression; format: in vivo, Drosophila; conditions: expressed under patched GAL4 control
Text: (e), (f), (g) Wing imaginal discs labelled to visualise Wingless protein (left panel) and the myc epitope tag (right panel). (e) patched^GAL4/+wing disc. Wingless is expressed in a continuous stripe along the DV boundary. (f) patched^GAL4/UAS-Fringe-GalNT3-myc. Golgi-tethered Fringe-GalNT3-myc expression in the patched^GAL4 stripe is shown in the right-hand panel. The endogenous Wingless stripe is interrupted where the Golgi-tethered Fringe stripe crosses the DV boundary (left panel). At the anterior-posterior compartment boundary the Golgi-tethered Fringe stripe abuts the endogenous Wingless stripe and induces ectopic expression of Wingless in the ventral compartment. This pattern is identical to that reported for ectopic expression of wild-type (secreted) Fringe shown in panel (g) for the Golgi-tethered Fringe D: dorsal compartment. V ventral compartment. Posterior is to the right. […] These effects precisely match those caused by expression of wild-type Fringe (not shown; see Panin et al., 1997; Kim et al., 1995). […] Cells were transfected to express Notch, wild-type Fringe-wt-myc, or mutant Fringe-NNN-myc as indicated. Cells transfected with empty vector were used as a control. Fringe-NNN-Myc has no activity in the binding assay, despite being expressed at higher levels than Fringe-wt-Myc.

Molecule: OC[C@H]1OC(O)[C@@H](O)[C@@H](O)[C@@H]1O (stereo partly drawn) [D-Man]
Acceptor for Brainiac, in words (initial analysis) (Brainiac [2]): best acceptor
Brainiac activity with substrate ([3]; substrate 2 mM): 0.28 nmol/h/mg
Brainiac activity with substrate ([3]; substrate 20 mM): 1.70 nmol/h/mg

Molecule: C[C@@H]1OC(O)[C@@H](O)[C@H](O)[C@@H]1O (stereo partly drawn) [L-Fuc]
Acceptor for Brainiac, in words (initial analysis) (Brainiac [2]): poor substrate
Brainiac activity with substrate ([3]; substrate 2 mM): 0.00 nmol/h/mg
Brainiac activity with substrate ([3]; substrate 20 mM): 0.05 nmol/h/mg

Molecule: C[C@H](O)[C@@H](O)[C@@H](O)[C@H](O)C=O [Fucose]
Glycosyltransferase activity of Fringe-wt microsome lysate over background level observed with Fringe-NNN (Fringe; donor UDP-N-acetylglucosamine (GlcNAc), average of two experiments, FIG. 5b): 18 fold

Molecule: C[C@@H]1O[C@@H](Oc2ccc([N+](=O)[O-])cc2)[C@@H](O)[C@H](O)[C@@H]1O [L-Fucα1-pNph]
Acceptor for Fringe, in words (Fringe): did not act as acceptors
Brainiac activity with substrate ([3]; substrate 2 mM): 0.02 nmol/h/mg
Brainiac activity with substrate ([3]; substrate 20 mM): 0.03 nmol/h/mg

Molecule: Galβ1-4Glcβ1-Cer
Glycolipid substrate for Brainiac, in words (Brainiac [1]): served as a substrate
Glycolipid used by human β3GnT2, in words (human β3GnT2): use Lac-Cer

B1: Fringe-NNN: Fringe-myc with amino acids D236, 237 and 238 converted to asparagine residues (protein, UniProt Q24342 1-412, looked up, variant D236N D237N D238N)
Fringe glycosyltransferase: T4 sequence (Q24342 1-412) with D236N, D237N, D238N
modifications: C-terminal myc tag
notes: Fringe-myc with amino acids D236, 237 and 238 converted to asparagine residues
Effect on Delta-AP binding, in words (Notch): did not increase Delta-AP binding above background levels
Effect on Delta-AP binding, in words (Notch; listed as Fringe-NNN-Myc): no activity
Effect on Wingless expression / Notch activation in wing disc, in words [4]: did not cause Notch activation in the ventral compartment

Results, then the molecule that gave them:

Glycolipid substrate for Brainiac, in words (Brainiac [1]): efficient substrate
Glycolipid used by human β3GnT2, in words (human β3GnT2): not Mac-Cer
Molecule: Manβ1-4Glcβ1-Cer

Acceptor for Fringe, in words (Fringe): did not act as acceptors
Molecule: C[C@@H]1O[C@H](Sc2ccc([N+](=O)[O-])cc2)[C@@H](O)[C@H](O)[C@@H]1O [β-L-Fuc-1-thio-p-Nph]
